Entries after “also recorded” stand apart in the source; their conditions may differ.
Experiments:
HAEC = experiment: MTS assay of endothelial cell proliferation with added peptide; assay type: cell-based, human; conditions: for endothelial proliferation Increase [times]: MTS, Table 3
Procedure: F2 peptide was synthesized and then contacted in a varying amount with HAEC, and the ability thereof to proliferate the cells was examined by MTS assay. The MTS assay is a modification of the MTT assay, and is a method of measuring living cells based on a reaction of reducing tetrazolium salt (MTS) by living cells in culture, into a colored product formazan. Specifically, this assay is carried out as follows: • HAEC was inoculated onto a 96-well plate at a density of 750 cells/well. • 2 μl/well of each sample was added to 100 μl/well endothelial cell medium (1% FBS, without EGF). 2 μl/well was added every day (until Day 6) (the medium was not exchanged). • 20 μl measurement solution (Cell Titer 96 AQueous One Solution Cell Proliferation Assay (Promega)) was added to each well and mixed with 100 μl of the endothelial cell medium, and the old medium was removed by suction. A mixed suspension of the measurement solution and the cells was put in a volume of 120 μl/well and then incubated for 1 to 5 hours in a CO2 incubator. • The absorbance at 490 nm was measured with a plate reader.
The sample group (8 wells each) is as follows: • NC: Only EBM medium (endothelial cell medium) containing 1% FBS. The other samples were cultured by adding various peptides to this medium containing serum. • VEGF-A: Recombinant VEGF-A (KURABO) was added at a final concentration of 10 ng/ml. • F2-1: F2 peptide was added at a final concentration of 1 ng/ml. • F2-10: F2 peptide was added at a final concentration of 10 ng/ml. • F2-100: F2 peptide was added at a final concentration of 100 ng/ml. • F2-1000: F2 peptide was added at a final concentration of 1000 ng/ml.

HEAC endothelial cells = experiment: Endothelial cell migration, modified Boyden chamber; assay type: cell-based, human; conditions: for migration % Increase: 4 hours
Procedure: A polyvinyl pyrrolidone (PVP)-free polycarbonate membrane having […] (Neuro Probe Inc., Gaithersburg, Md.) was coated overnight with 0.1% gelatin and then washed with phosphate buffered saline to remove an excess of the gelatin coating. Then, 28 μl growth factor-free EBM2 medium supplemented with 1% FBS was arranged in a lower chamber, and the membrane was arranged on the lower chamber. […] The Boyden chamber was incubated at 37° C. for 4 hours. After incubation, the membrane was removed and the cells on the upper side of the membrane were removed. The cells on the lower side of the membrane were stained with Diff-Quick (Sysmex, Hyogo Pref., JP). The cells in each of randomly selected 8 visual fields (×100) were counted.

C57BL/6 female mouse = experiment: Matrigel plug assay, in vivo angiogenesis; conditions: 1 μg/ml in Matrigel, subcutaneous, after 7 days
Procedure: In order to examine the in vivo angiogenesis-promoting activity of F2 peptide, a Matrigel plug assay (Rikitake, Y et al., Arterioscler Thromb Vasc Biol 20, 1006-1012 (2000)) was carried out. Together with any one of VEGF-A (50 ng/ml), F2 peptide (1 μg/ml) or the control peptide (1 μg/ml) or without adding any sample (negative control), Matrigel (0.5 ml, BD Biosciences, Franklin Lakes, N.J.) depleted of growth factor was mixed with 40 U/ml heparin (Aventis Pharma, Tokyo, JP). Then, each mixture was injected subcutaneously into a C57BL/6 female mouse obtained from Oriental Bioscience (Kyoto, JP). After 7 days, the mouse was sacrificed, and the plug was recovered and fixed in methanol. For immune staining, the section was incubated overnight at 4° C. with anti-CD31 (PECAM-1) monoclonal antibody (diluted at 1:100, BD Pharmigen, San Diego, Calif.) and then incubated for 2 hours with Alexa Flour 488 secondary antibody (1:1000, Molecular Probes, Eugene, Oreg.) before photographing. Every experimental protocol was approved by Animal Committee, Medical Department, Graduate School, Osaka University, JP.

[1] = test system: fibroblast growth factor (FGF-2) mRNA; experiment: Growth factor mRNA expression level: FGF-2; assay type: cell-based
[2] = test system: transforming growth factor (TGF-β) mRNA; experiment: Growth factor mRNA expression level: TGF-β; assay type: cell-based
[3] = test system: endothelial nitric oxide synthase (eNOS) mRNA; experiment: Growth factor mRNA expression level: eNOS; assay type: cell-based
[4] = test system: connective tissue growth factor (CTGF) mRNA; experiment: Growth factor mRNA expression level: CTGF; assay type: cell-based
[5] = test system: ERK (extracellular signal-related kinase); experiment: Effect on ERK activity; conditions: data are not shown

In the case of “MLSLIFLHRLKSMRKRLDRKLRFWHRKNYP (listed as Homo sapiens) [F2 peptide]”, the “endothelial proliferation Increase [times]” value (HAEC; 100 ng/ml) is reported as 1.23 times, the “endothelial proliferation Increase [times]” value (HAEC; 1 μg/ml) is reported as 1.475 times and the “cell proliferation ability (MTS assay, absorbance at 490 nm)” value (HAEC; F2 peptide 1 to 1000 ng/ml added every day until Day 6, VEGF-A 10 ng/ml, FIG. 9) is reported as “recognized in a dose-dependent manner, similar to VEGF protein; also recorded: stronger activity of enhancing proliferation of HEAC than VEGF”. The “migration % Increase” value (HEAC endothelial cells; 10 ng/ml) was 88.5%, the “migration % Increase” value (HEAC endothelial cells; 100 ng/ml) was 102.5% and the “migration % Increase” value (HEAC endothelial cells; 1 μg/ml) was 129.8%. The “cell migration activity (in words)” value (HEAC endothelial cells; F2 0.01 to 1 μg/ml, control peptide 1 μg/ml, VEGF 50 ng/ml, FIG. 10) was “significantly increased in a concentration-dependent manner; also recorded: higher than that of VEGF (50 ng/ml)”, the “newly formed blood vessels containing intact erythrocytes in the plug” value (C57BL/6 female mouse; FIG. 12) was “more newly formed blood vessels containing intact erythrocytes than in the mouse receiving a Matrigel containing the control peptide” and the “newly formed blood vessels by immune staining with anti-CD31 antibody” value (C57BL/6 female mouse; FIG. 13) was “more newly formed blood vessels”. The “effect on mRNA level of FGF-2 (in words)” value [1] was “did not have any effect”, the “FGF-2 mRNA Increased Amount [times]” value ([1]; 24 hrs) was 5.7 times and the “FGF-2 mRNA Increased Amount [times]” value ([1]; 48 hrs) was 6.0 times. For the same sequence, the “FGF-2 mRNA Increased Amount [times]” value ([1]; 72 hrs) was 9.4 times, the “effect on mRNA level of TGF-β (in words)” value [2] was “did not have any effect” and the “TGF-b mRNA Increased Amount [times]” value ([2]; 24 hrs) was 2.6 times. The “TGF-b mRNA Increased Amount [times]” value ([2]; 48 hrs) was 13.6 times, the “TGF-b mRNA Increased Amount [times]” value ([2]; 72 hrs) was 1.6 times and the “effect on mRNA level of eNOS (in words)” value [3] was “did not have any effect”. For the same sequence, the “eNOS mRNA Increased Amount [times]” value ([3]; 24 hrs) was 0.1 times, the “eNOS mRNA Increased Amount [times]” value ([3]; 48 hrs) was 6.1 times and the “eNOS mRNA Increased Amount [times]” value ([3]; 72 hrs) was 0.7 times. For the same sequence, the “effect on mRNA level of CTGF (in words)” value [4] was “did not have any effect”, the “CTGF mRNA Increased Amount [times]” value ([4]; 24 hrs) was 0.2 times and the “CTGF mRNA Increased Amount [times]” value ([4]; 48 hrs) was 1.1 times. For the same sequence, the “CTGF mRNA Increased Amount [times]” value ([4]; 72 hrs) was 0.5 times and the “effect on ERK activity” value [5] was “did not have any direct effect”.

From patent US7807176B2, “Polypeptide promoting vascular endothelial cell growth” (Genomidea, Inc., priority 2004, dated 2010)
